The values below come from US20070161108A1, “Bob-1 specific T cells and methods to use” (priority 2004, published 2007).

Holding throughout (type): cell-based, human
The test system of test [1] is PBMC isolated from a patient with humoral immune defects. The test is described as follows: ELISPOT assay to analyze cross-reactivity of induced CTL (FIG. 3a, 3b). To be noted: PBMC stimulated with ILKDPVHGV (FIG. 3a) or FLKEPVKEL (FIG. 3b). As to the method:
The preferred T-cell analyzing assay was the ELISPOT assay, which has evolved to a standard assay for the detection of antigen-specific T-cells in immunology. ELISPOT assays were conducted using R5AB media consisting of RPMI 1640 medium with supplements and 5% human AB serum (Sigma-Aldrich, Steinheim, Germany). Both freshly isolated lymphocytes from peripheral blood (PBMC) or from lymph nodes and peptide stimulated PBMC were used. Nitrocellulose filter-backed microtiter plates (96 well; MAHA-S-4510, Millipore, Molsheim, Germany) were coated with 50 μl of interferon-γ antibody 1-D1K (Mabtech, Stockholm, Sweden) at a concentration of 10 μg/ml. After four washes with PBS and blocking with R5AB, 5×10^5 PBMC were added in 100 μl R5AB to the precoated wells in duplicate. Peptides were added directly to the wells at a final concentration of 40 μg/ml and the plates were incubated for 10 h at 37° C. in 5% CO2. After six washes with PBS containing 0.05% Tween 20 (PBS/T 0.05%), 100 μl biotinylated interferon-γ monoclonal antibody 7-B6-1 (Mabtech) was incubated at a final concentration of 2 μg/ml for 2 h at 37° C. in 5% CO2. After washing with 0.05% PBS/T, 10011 avidin/peroxidase solution (Vectastain ABC-Kit, Vector Laboratories, CA, USA) was added to each well. […] Spots were counted using a video-based automatic ELISPOT reader (AID Autoimmun Diagnostika, Strassberg, Germany).

The next test deals with HLA-A2-positive T2-cells. Kind of test: Chromium release assay, CTLs from a patient with humoral immune defects stimulated with ILKDPVHGV (FIG. 2). To be noted: 5-hour chromium release. As to the method: After several washing steps the CTLs, isolated from a patient with humoral immune defects and stimulated for an outgrowth of CTLs with specificity to the peptide ILKDPVHGV, were incubated with the labeled and peptide presenting T2-cells and the release of chromium is measured. Specific lysis depending on the different Peptides presented is indicated.
T-cells isolated from a patient with a humoral immune defect were peptide stimulated with the HIV derived peptide ILKDPVHGV and small doses of interleukin 2. Outgrowing CTLs were then tested in a 5-hour chromium release assay for their peptide specific lyses.
For this specific HLA-A2-positive T2-cells, which are a fusion between a B-cell and a T-cell having a TAP-transporter defect and therefore not being capable to present internal Bob-1 protein, were incubated with radioactive labeled chromium and different peptides. Subsequently, after several washing steps the outgrown CTLs were incubated with the labeled and peptide presenting T2-cells and the release of chromium is measured.

For a further test, the system named is HLA-A2-positive T2 cells. Kind of test: Chromium release assay, CTLs from a HIV patient stimulated with ILKDPVHGV (FIG. 1). Here is the method: After several washing steps the CTLs, isolated from a HIV patient and stimulated for an outgrowth of CTLs with specificity to the peptide ILKDPVHGV, were incubated with the labeled and peptide presenting T2-cells and the release of chromium is measured. Specific lysis depending on the different Peptides presented is indicated.
T-cells isolated from a HIV patient were peptide stimulated with the peptide ILKDPVHGV and small doses of interleukin 2. Outgrowing CTLs were then tested in a chromium release assay for their peptide specific lyses.
For this specific HLA-A2-positive T2-cells, which are a fusion between a B-cell and a T-cell having a TAP-transporter defect and therefore not being capable to present internal Bob-1 protein, were incubated with radioactive labeled chromium and different peptides. Subsequently, after several washing steps the CTLs were incubated with the labeled and peptide presenting T2-cells and the release of chromium is measured.

The subject of a further test is PBMC of a healthy person. The test is described as follows: gamma-IFN-ELISPOT, in vitro stimulation of PBMC of a healthy person with peptide-loaded dendritic cells (FIG. 14). To be noted: pool 1 or pool 4 presented by autologous dendritic cells. The text has this: Given are the number of peptide-specific T-cells after stimulation of the pool 1-specific or the pool 4-specific cell lines with the respective pools and the indicated peptides. […] The T-cell lines had been generated by stimulation of peripheral blood mononuclear cells (PBMC) with five different pools containing each five 20 amino acid (aa) long peptides with a 10 amino acid long overlap, corresponding to aa 1 to aa 256 of the Bob-1 protein. The peptide pools were presented by autologous dendritic cells that had been generated by a standard protocoll (Berger T G, Feuerstein B, Strasser E, Hirsch U, Schreiner D, Schuler G, Schuler-Thurner B. Large-scale generation of mature monocyte-derived dendritic cells for clinical application in cell factories. Journal of immunological methods 2002, 268: 131-140). […] Therefore, it represents a model for an in vivo induction of a Bob-1 specific T-cell response.
For this, PBMC of a healthy person were stimulated—as described above—with autologous dendritic cells loaded with a selection of Bob-1 derived peptides. […]

For test [2], the system named is T-cell lines from an HIV-2 infected patient. Kind of test: gamma-interferon-ELISPOT-assay, T-cell lines from an HIV-2 infected patient (FIG. 12). The note with it: PBMC stimulated by pool of 5 overlapping peptides aa151-210. As to the method: FIG. 12 Recognition of Bob-1 specific peptide aa171-190 by T-cell lines from an HIV-2 infected patient. PBMC from the patient had been stimulated by a pool of 5 overlapping peptides spanning aa151-210 of the Bob-1 sequence. Outgrowing cells were tested in a gamma-interferon-ELISPOT-assay of recognition of the peptide pool aa151-210 and of the individual peptides.

For “FLKEPVKEL [modified Bob-1 derived peptide]”, in test [1], the “Cross-reactivity of induced CTL in ELISPOT” value was “strong cross-reactivity”. In addition, in the test on HLA-A2-positive T2-cells, the “Specific lysis of peptide presenting T2 cells, recognition and cross-reactivity” value is listed as “high cross-reactivity”. The “Specific lysis of peptide presenting T2 cells, cross-reactivity with ILKDPVHGV-specific CTLs” value with HLA-A2-positive T2 cells is given as “Cross-reactivity”.

With “QAPLTYFPWPQPLSTLPTST [peptide aa171-190]”, the “Recognition by T-cell lines, or induction of Bob-1-specific T-cells, gamma-IFN-ELISPOT” value in the test on PBMC of a healthy person is “specific recognition”. The “Recognition in gamma-interferon-ELISPOT” value in test [2] was “specific recognition”.
